Experimental data from patent publication US20190153021A1, “THERAPEUTIC COMPOUNDS” (UNIVERSITY OF IOWA RESEARCH FOUNDATION, priority 2015, published 2019).

Columns and labels:
[1] = simplified steroidal aglycone; cited from earlier work
[2] = Metabolic stability and pharmacokinetics, cleavage of ester groups in mouse blood; format: in vitro ADME
[3] = In vivo efficacy of OSW-1
[4] = tested on: dormant cancer cells; conditions: independent of cell cycle; cited from earlier work
[5] = tested on: NCI 60 cell-line tumor panel; conditions: cited from earlier work

pharmacokinetics (PK) [2] | metabolic stability: cleavage of the two ester groups ([2]; enzymes in mouse blood, gives major metabolite 2) | SMILES | in vitro anticancer activity compared with compound 1 [1] | in vivo efficacy [3] | concentration that effectively kills dormant cancer cells [4] | IC50 ([5]; mean over NCI 60-cell in vitro screen) [nM] | anticancer activities, times more potent than many well-known anticancer drugs in clinical use ([5]; relative potency)
– | – | COc1ccc(C(=O)OC2C(OC3C(O)COC(O[C@H]4C[C@@H]5[C@H](CC[C@H]6[C@H]5CC=C5C[C@@H](O)CC[C@@]56C)[C@H]4[C@H](C)CCCC(C)C)C3OC(C)=O)OCC(O)C2O)cc1 (stereo partly shown) [Compound 3] | similar | – | – | – | –
poor | quickly cleaved | COc1ccc(C(=O)O[C@H]2[C@H](O[C@@H]3[C@@H](OC(C)=O)[C@H](O[C@H]4C[C@H]5[C@@H]6CC=C7C[C@@H](O)CC[C@]7(C)[C@H]6CC[C@]5(C)[C@@]4(O)[C@H](C)C(=O)CCC(C)C)OC[C@@H]3O)OC[C@@H](O)[C@@H]2O)cc1 [OSW-1] | – | relatively weak | sub-nM | 0.78 | 10-100 times
